Laboratory results published in patent US10688092B2, “Compositions and methods of using nintedanib for improving glaucoma surgery success” (Cloudbreak Therapeutics, LLC, priority 2016, dated 2020).

Columns and labels:
[1] = system: patients with medically uncontrolled open-angle glaucoma scheduled for a primary trabeculectomy; experiment: Clinical study of topical nintedanib 0.2% as adjunct therapy to trabeculectomy; format: in vivo, human
Excerpt: Topical nintedanib 0.2% as adjunct therapy to increase success of trabeculectomy in a clinical study. A randomized, double-masked, placebo-controlled, 12-month experimental trial to test the effects of topical nintedanib 0.2% on the success rate of trabeculectomy. The study design would be as described by Vandewalle et. al. (Vandewalle et. al. Br J Ophthalmol. 2014, January; 98(1):73-8).
Patients with medically uncontrolled open-angle glaucoma scheduled for a primary trabeculectomy would be enrolled and randomized to receive one drop TID of either nintedanib or placebo solutions. The treatment would start immediately after surgery and would last for a month. Approximately 150 patients would be enrolled in the study.
Surgeries would be performed under general or retrobulbar anaesthesia by experienced surgeons using a modified Moorfields technique. IOP would be measured by Goldmann applanation tonometry. Two measurements would be taken by masked observers and averaged to determine the mean IOP if two values were within 2 mm Hg. A third measurement would be taken if the difference between the first two determinations is >2 mm Hg.
Patients would be examined on day 1; at weeks 1, 2, and 4; and at months 3, 6, and 12 after trabeculectomy. […] The number of postoperative IOP-lowering medications, intra- and postoperative complications, and surgical interventions would also be recorded. […]

[2] = system: rabbit model of glaucoma filtration surgery; experiment: Rabbit glaucoma filtration surgery model; format: in vivo, New Zealand White rabbits
Excerpt: The rabbit glaucoma surgery model is used to illustrate use of the presently disclosed methods for improving the success of glaucoma filtration surgery. Specifically, an established rabbit model of glaucoma filtration surgery would be used to study the effects of nintedanib 0.2% solution on the wound-healing events after surgery. The surgical procedure is as described in Wong et al. (Wong et al. Invest Ophthalmol Vis Sci. 2003; 44(3):1097-1103). Briefly, a partial thickness 8-0 silk corneal traction suture is placed superiorly, and the eye pulled down. A fornix based conjunctival flap is raised, after which a blunt dissection of the subconjunctival space is performed of approximately 5 mm along the limbus and 8 mm posteriorly. A microvitreoretinal (MVR) blade is used to make a partial-thickness scleral incision 3 to 4 mm behind the limbus, and a scleral tunnel to the corneal stroma is fashioned. A 22-gauge, 25-mm intravenous cannula (Venflon 2; Beckton Dickinson, Oxford, UK) is passed through a scleral tunnel anteriorly until the cannula needle is visible in the clear cornea. Entry into the anterior chamber is made with a cannular needle, which is then withdrawn as the cannula is advanced to the mid-pupillary area. The cannula is trimmed and beveled at its scleral end so that it protrudes 1 mm from the insertion point, and a 10-0 nylon suture is placed to fix the tube to the scleral surface. The conjunctival incision is closed with two interrupted sutures and a central, mattress-type 10-0 nylon suture attached to a needle (B/V 100-4; Ethicon) to give a water-tight closure. One drop each of guttae chloramphenicol and Betnesol-N(Glaxo Wellcome, Uxbridge, UK) ointment is instilled at the end of surgery.
Twenty female New Zealand White rabbits (2-2.4 kg, 12-14 weeks old; Charles River) would be acclimatized for 5 days before the experiments start. Glaucoma surgery would be performed on the left eye as described. After surgery, the rabbits would be arranged into two groups and one group would be treated with vehicle and another with nintedanib 0.2% solution. Treatments would begin immediately after surgery and the treatment would be TID for 2 weeks. The survival of the bleb formed by the surgery and the intraocular pressure (IOP) would be followed for 28 days. Histological analysis of the scar tissue would be performed at the end of the study.

## COC(=O)c1ccc2c(c1)NC(=O)/C2=C(\Nc1ccc(N(C)C(=O)CN2CCN(C)CC2)cc1)c1ccccc1 [nintedanib, Methyl (3Z)-3-{[(4-{methyl[(4-methylpiperazin-1-yl)acetyl]amino}phenyl)amino] (phenyl)methylidene}-2-oxo-2,3-dihydro-1H-indole-6-carboxylate]
[1]; 12-month visit, one drop TID for a month after surgery
  IOP compared to baseline: effectively reduced
[1]; vs the placebo group, differences statistically significant at time points after 6 months
  absolute success rate of glaucoma surgery (FIG. 4): higher
[2]; day 28, no bleb would survive in the vehicle group
  bleb survival at end of study: most of the bleb would survive
[2]; end of study, compared with vehicle group
  histological analysis of scar tissue at the surgical site: less scar tissue
[2]; nintedanib 0.2% solution TID for 2 weeks after surgery, compared with vehicle group
  Surgery success outcome: significantly prolonged
[2]; nintedanib 0.2% solution TID for 2 weeks, followed for 28 days, compared with vehicle group
  bleb survival (survival curve of the bleb after surgery, FIG. 2): substantially prolonged
[2]; nintedanib 0.2% solution TID for 2 weeks, followed for 28 days, IOP increased gradually in vehicle group
  IOP during the follow up period after the surgery (FIG. 3): below 20 mm
